Source: patent US9663548B2, “10-α/β-D-arabinofuranosyl-undecenes as potential anti-mycobacterial agents and process for the preparation thereof” (priority 2011, dated 2017)
≈ marks a conversion by molar mass, not a printed value.

System: Mycobacterium bovis BCG
Assay: microbe, parasite or virus in culture
Type: cell-based
Conditions: for IC50: M. bovis BCG growth, 8 days incubation; for inhibition at 1 µg/mL: read-out: % Inhibition of growth of Mycobacterium Bovis BCG, at 1 μg/ml concentration
[1] = Mycobacterium tuberculosis variant bovis BCG, BCG, 192 h
[2] = Mycobacterium tuberculosis variant bovis BCG, BCG

Compound | MIC90 [1] [µg/mL] | IC50 [1] [µg/mL] | inhibition at 1 µg/mL [2] [%] | further results
C=CCCCCCCCCCO [Compound 10-undecenol, 10-undecenol, reference compound] |  |  |  | inhibition of M. bovis BCG (control experiment with aglycon) (FIG. 1d, doses 0.1 to 100 μg/ml): poor inhibitor
CC[C@@H](CO)NCCN[C@@H](CC)CO [Ethambutol, ethambutol, reference compound] | 2.9 (≈ 14.2 µM) | 0.2 (≈ 0.979 µM) | 85 | 
CO[C@H]1/C=C/O[C@@]2(C)Oc3c(C)c(O)c4c(O)c(c(/C=N/N5CCN(C)CC5)c(O)c4c3C2=O)NC(=O)/C(C)=C\C=C\[C@H](C)[C@H](O)[C@@H](C)[C@@H](O)[C@@H](C)[C@H](OC(C)=O)[C@@H]1C [Rifampicin, rifampicin, reference compound] |  | 0.02 (≈ 0.0243 µM) |  | inhibition at 0.2 µg/mL (Mycobacterium tuberculosis variant bovis BCG, BCG, read-out: % Inhibition of growth of Mycobacterium Bovis BCG, at 0.2 μg/ml): 99%
C=CCCCCCCCCCC1OC(CO)C(O)C1O (stereo not drawn) [Compound 1] | 15 (≈ 52.4 µM) | 1.1 (≈ 3.84 µM) | 48 | 
C=CCCCCCCCCCC1OC(COC2OC(CO)C(O)C2O)C(O)C1O (stereo not drawn) [Compound 4] |  |  |  | IC50: 19 µg/mL (≈ 45.4 µM); % Inhibition of growth of Mycobacterium Bovis BCG (at 1 μg/ml concentration): 28%
C=CCCCCCCCCC[C@H]1O[C@H](CO)[C@@H](O)[C@@H]1O [Compound 2] | 1.6 (≈ 5.59 µM) | 0.19 (≈ 0.663 µM) | 85 | IC50 (listed as α-C-glycoside): 0.2 µg/mL (≈ 0.698 µM)
